Experimental data published in patent publication US20240368506A1, “Manufacturing a Non-Alcoholic Distilled Spirit and Functional Ingredient” (priority 2022, published 2024).

Assays:
MAO B = biological target: T1, MAO B (Homo sapiens, UniProt P27338); experiment: MAO B inhibitory activity of Don Julio Añejo or 40% ethanol spiked with terpenes; type: biochemical; details: terpene at 0.5% (v/v) in tequila (40% ABV) and in 40% ethanol
T1 sequence (P27338 1-520): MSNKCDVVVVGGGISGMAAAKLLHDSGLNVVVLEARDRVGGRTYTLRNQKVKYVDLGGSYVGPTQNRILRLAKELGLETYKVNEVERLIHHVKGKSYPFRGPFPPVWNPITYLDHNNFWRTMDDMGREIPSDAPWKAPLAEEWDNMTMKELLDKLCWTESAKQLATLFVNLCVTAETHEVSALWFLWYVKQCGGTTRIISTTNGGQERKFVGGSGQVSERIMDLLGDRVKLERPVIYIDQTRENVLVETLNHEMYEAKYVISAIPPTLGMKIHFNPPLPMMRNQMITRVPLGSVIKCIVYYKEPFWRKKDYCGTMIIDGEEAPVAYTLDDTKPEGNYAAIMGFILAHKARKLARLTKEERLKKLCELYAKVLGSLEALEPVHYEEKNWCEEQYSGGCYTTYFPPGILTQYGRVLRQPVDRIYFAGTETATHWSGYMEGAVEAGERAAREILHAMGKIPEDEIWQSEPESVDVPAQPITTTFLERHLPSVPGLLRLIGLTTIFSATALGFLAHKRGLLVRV
Experimental: (§1) The effect terpenes on MAOI activity in tequila was evaluated in the experiment from Table 3. Terpenes were added to 40% ethanol and tequila (40% ABV) at 0.5%. (v/v) and assayed for MAO inhibitory activity.

MAO A = biological target: T2, MAO A (Homo sapiens, UniProt P21397); experiment: MAO A inhibitory activity of Don Julio Añejo or 40% ethanol spiked with terpenes; type: biochemical; details: terpene at 0.5% (v/v) in tequila (40% ABV) and in 40% ethanol
T2 sequence (P21397 1-527): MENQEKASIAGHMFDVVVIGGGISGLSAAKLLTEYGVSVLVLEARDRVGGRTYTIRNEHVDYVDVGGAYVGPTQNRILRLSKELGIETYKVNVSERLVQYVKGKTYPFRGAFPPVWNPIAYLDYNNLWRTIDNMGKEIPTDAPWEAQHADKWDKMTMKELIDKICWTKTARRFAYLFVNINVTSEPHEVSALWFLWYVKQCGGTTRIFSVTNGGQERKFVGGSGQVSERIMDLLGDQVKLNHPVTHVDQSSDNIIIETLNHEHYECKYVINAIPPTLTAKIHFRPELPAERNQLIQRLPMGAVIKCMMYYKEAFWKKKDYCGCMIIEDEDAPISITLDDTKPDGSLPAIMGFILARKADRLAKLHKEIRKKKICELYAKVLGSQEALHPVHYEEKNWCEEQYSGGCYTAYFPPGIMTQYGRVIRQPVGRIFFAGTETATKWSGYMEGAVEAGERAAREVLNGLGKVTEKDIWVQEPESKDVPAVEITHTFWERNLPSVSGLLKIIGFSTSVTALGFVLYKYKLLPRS
Experimental: as §1

| Compound | Δ % Inhibition MAO B (DJA + terpene) − (ETOH + terpene) (MAO B) | Δ % Inhibition MAO A (DJA + terpene) − (ETOH + terpene) (MAO A) |
| --- | --- | --- |
| C=C(C)[C@@H]1CCC2=CCC[C@@H](C)[C@]2(C)C1 [valencene] | 20% | 9% |
| Geramol | 9% | 4% |
